Legend:
Type in all cases: cell-based, human
[1] = system: inflammasome activation by LPS+ATP; assay: Benchmark experiment, present assay platform (HTRF cytokine release plus image-based multi-parametric readouts), LPS priming and LPS+ATP activation; conditions: for TNFa-positive cells percentage: LPS and LPS_Activator conditions, vs DMSO; for inflammasome activation / percentage of IL1beta-positive cells / IL1beta release: LPS+ATP (LPS_Activator); for IL1beta release: vs DMSO control
Description: (§1) FIG. 24: Added-Value-1. Higher precision and accuracy of the present technology compared to Luminex cytokine assays. We tested the IL1beta- and TNFalpha release performance on the present assay platform (integrated as HTRF assays from cisbio/PerkinElmer into the inventive workflow) (B) in comparison to the Luminex cytokine assay technology (A). […] (2) Due to its higher precision and accuracy, the inventive technology allowed to disclose distinct compound (Cmpd) effects on donor-specific responses which was not achieved by the Luminex technology despite its higher nominal assay ranges as indicated by the upper and lower LoD's (tables on the left in A, B). (3) Despite higher nominal assay ranges of Luminex cytokine tests compared to present technology cytokine release LoD's (dotted lines), donor-specific response ranges were solely resolved by the inventive technology and could not be identified by the Luminex assay. (4) Despite higher nominal assay ranges of Luminex cytokine tests compared to present technology cytokine release LoD's, the inventive technology covered a larger assay window as indicated by the ovals on the TNFa-release box plot y-axes in (A) and (B).
(§2) To benchmark the inventive technology in the context of established state-of-the-art cytokine assays in the field of innate immune response analyses, a product benchmarking experiment was conducted. Towards this end, a 34-plex, off-the-shelf Luminex cytokine assay kit was tested in comparison to the present assay platform which in this embodiment integrates cytokine release data with image-based readout analyses leading to increased knowledge and added scientific value.
(§3) In the benchmarking experiment, innate immune reactions were assessed by classical cytokine release assays, i.e. the Luminex assay technology, and compared to the present platform which allows an in-depth analysis of immune responses by the combination and integration of cytokine release data and image-based multi-parametric readouts. Since the present assay platform represents a functional assay, the following conditions were analyzed, untreated, LPS-priming and priming-activation by LPS+ATP. Furthermore, the effects of selected reference compounds on the innate immune responses were tested, i.e. CRID3/MCC950 (NLRP3 inflammasome inhibitor), P22077 (ubiquitin protease inhibitor), 4SC202/Domatinostat (class 1 HDAC inhibitor), MI-2 (MALT1 inhibitor, NLRP3 inhibitor), A438079 (P2X7 receptor antagonist), VX-765 (CASP1 inhibitor) and Z-VAD-OH-FMK (pan-CASP inhibitor). The selection of the reference compounds was based on compound-specific effects on captured phenotypes obtained by the present technology (Table 3). Captured phenotypes obtained by multi-parametric and image-based readout constitute an added value provided by the present technology.

[2] = system: inflammasome activation by LPS+ATP; assay: Benchmark experiment, 34-plex Luminex cytokine assay; conditions: for IL1b release (Luminex): LPS+ATP
Description: as §1, §2, §3

PBMC = assay: De-risking of cyclooxygenase (COX)-modulators (pain-killers) in the PBMC test system: image-based and supernatant cytokine readouts; conditions: for alteration of the collective phenotypic signature: 54 COX-modulators, three independent experiments, normalized to untreated control
Protocol: 54 pain-killers were tested in three independent experiments. […] The results were normalized to the untreated control group. Image-based assay read outs: a) “Active”, ratio of cells presenting mounted inflammasome, b) “TNFaPosRate”, ratio of cells showing intracellular TNFalpha expression, c) “TNFa specs/cell”, number of TNFalpha spots within TNFalpha positive cells, d) “Cells”, total number of cells. Homogenous assay read outs: e) “TNFa see”, TNFalpha concentration in the supernatant in ng/ml, f) “IL1b”, IL1beta concentration in the supernatant in ng/ml.
54 compounds were tested, which are known as cyclooxygenase (COX)-Modulators. Most of the compounds were already on market or in drug development process. A unique collective phenotypic signature of this drug class was identified. There was no alteration of assay parameters, meaning that common Cox-modulators should have no effect on the innate immune response in the test system provided by the present invention. […] Bufexamac was withdrawn from market 2010 due to allergic reaction and was further proposed in 2017 as co-treatment agent (TNFa binder) for modulators of TNFa synthesis. […] Xanthohumol, a chalcone isolated from Humulus lupus, is currently in clinical trial phase 1. Currently, there is no information about induced adverse effects.
The adverse effects of all three compounds were not identified during the safety/toxicity assessment in preclinical lead optimization or in clinical trials. Current safety testing during preclinical drug development was not able to detect the adverse modulation of innate immune response.

Clc1cccc(-c2nnnn2Cc2cccnc2)c1Cl [A-438079]
TNFa-positive cells percentage [1]: no impact | inflammasome activation ([1]; image-based): complete block | percentage of IL1beta-positive cells ([1]; image-based): marked increase | IL1beta release [1]: block | IL1b release (Luminex) [2]: block

CCCCOc1ccc(CC(=O)NO)cc1 [Bufexamac]
TNFa binder effect (PBMC): effect was proofed | alteration of the collective phenotypic signature (PBMC): show alteration of the collective phenotypic signature

CC(C)(O)c1coc(S(=O)(=O)NC(=O)Nc2c3c(cc4c2CCC4)CCC3)c1 [CRID3, CRID3/MCC950]
inflammasome activation ([1]; image-based): complete block | percentage of IL1beta-positive cells ([1]; image-based): marked increase | IL1beta release [1]: complete block | IL1b release (Luminex) [2]: block

COCCOc1nc(-c2ccc(Cl)c(Cl)c2)n(-c2ccc(NC(=O)CCl)cc2)n1 [MI-2]
TNFa-positive cells percentage [1]: not affected | inflammasome activation ([1]; image-based): complete block | percentage of IL1beta-positive cells ([1]; image-based): marked increase | IL1beta release [1]: complete block | percentage of TNFa-multispot-positive cells ([1]; image-based): robust increase | TNFa release ([1]; present assay): partial block | TNFa release (Luminex) [2]: partial block of TNFa release with limited resolution | IL1b release (Luminex) [2]: block

CC(C(=O)O)c1ccc(C(=O)c2cccs2)cc1 (centres unmarked) [Subrofen]
alteration of the collective phenotypic signature (PBMC): show alteration of the collective phenotypic signature | cytokine release (II. 1b) (PBMC; supernatant): strong decrease

COc1cc(O)c(CC=C(C)C)c(O)c1C(=O)/C=C/c1ccc(O)cc1 [Xanthohumol]
alteration of the collective phenotypic signature (PBMC): show alteration of the collective phenotypic signature

Z-VAD-OH-FMK
inflammasome activation ([1]; image-based): did not show any effect | percentage of IL1beta-positive cells ([1]; image-based): low percentage | IL1beta release [1]: block | IL1b release (Luminex) [2]: block
